From patent publication US20250368633A1, “AZEPINE FUSED RING COMPOUND AS RIPK1 INHIBITOR AND USE THEREOF” (ARTIVILA BIOPHARMA, priority 2022, published 2025)

How the values were obtained:
U937 cells = experiment: Inhibition rate of compound (1 μM) on necroptosis of U937 cells (TSZ-induced, CellTiter-Glo); assay type: cell-based; conditions: TSZ (hTNF-α, SM-164, Z-VAD-FMK) 20 hours
Procedure, shortened: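 Percent inhibition comes from ATP luminescence (CellTiter-Glo), referenced to wells without TSZ and wells with TSZ alone. The compound was added to U937 cells 15 min ahead of a TNF-α/SM-164/Z-VAD-FMK mix, followed by 20 h culture at 37° C, 5% CO2.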

RIPK1 kinase = biological target: T1, RIPK1 kinase (Homo sapiens, UniProt Q13546); experiment: In vitro RIPK1 kinase activity IC50 assay (ADP-Glo); assay type: biochemical; conditions: ATP 10 μM; MBP substrate 100 μg/mL; 8 concentration points; read-out: IC50 range of compounds for RIPK1 kinase activity
T1 construct: purchased Promega VA7593
T1 sequence (Q13546 1-671): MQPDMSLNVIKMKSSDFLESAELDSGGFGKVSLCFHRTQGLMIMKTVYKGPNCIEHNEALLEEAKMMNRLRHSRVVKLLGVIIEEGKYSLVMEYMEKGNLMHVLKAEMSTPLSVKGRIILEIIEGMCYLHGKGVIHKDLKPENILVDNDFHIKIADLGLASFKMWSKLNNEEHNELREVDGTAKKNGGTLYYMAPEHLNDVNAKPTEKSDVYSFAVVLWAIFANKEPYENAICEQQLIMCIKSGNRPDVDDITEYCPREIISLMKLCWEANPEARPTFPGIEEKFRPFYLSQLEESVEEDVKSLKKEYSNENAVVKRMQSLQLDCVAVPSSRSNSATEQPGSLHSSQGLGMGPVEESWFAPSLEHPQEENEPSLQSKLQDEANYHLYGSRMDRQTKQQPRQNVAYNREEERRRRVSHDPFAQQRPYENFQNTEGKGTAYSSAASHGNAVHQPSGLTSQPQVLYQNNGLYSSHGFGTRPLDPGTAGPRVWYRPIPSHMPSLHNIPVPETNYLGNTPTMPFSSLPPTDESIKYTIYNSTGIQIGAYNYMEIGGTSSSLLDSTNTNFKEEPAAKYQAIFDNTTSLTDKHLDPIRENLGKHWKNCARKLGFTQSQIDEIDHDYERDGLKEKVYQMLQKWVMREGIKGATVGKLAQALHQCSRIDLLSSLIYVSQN
Procedure, shortened: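 Human RIPK1 preincubated 15 min at room temperature with compound (8-point 1:5 dilution series, 1% DMSO in kinase buffer D). Reaction then ran 1 h with 10 μM ATP and 100 μg/mL MBP substrate; ADP measured by ADP-Glo luminescence, IC50 from four-parameter nonlinear fit.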

IC50 (RIPK1 kinase) | SMILES | Inhibition rate range of compounds (1 μM) on U937 cell necroptosis (U937 cells)
< 100 nM | COC(=O)C1(C#Cc2ccc3c(c2)N(C)C(=O)[C@@H](NC(=O)C(=O)NCCc2ccccc2)CO3)CC1 [Example 96, methyl (S)-1-((5-methyl-4-oxo-3-(2-oxo-2-(phenethylamino)acetamido)-2,3,4,5-tetrahydrobenzo[b][1,4]oxazepin-7-yl)ethynyl)cyclopropane-1-carboxylate] | B (B: 50-89%)
< 100 nM | CN1C(=O)[C@@H](NC(=O)C(=O)NCCc2cccs2)COc2ccccc21 [Example 97, (S)—N^1-(5-methyl-4-oxo-2,3,4,5-tetrahydrobenzo[b][1,4]oxazepin-3-yl)-N^2-(2-(thiophen-2-yl)ethyl)oxalamide] | A (A: ≥90%)
< 100 nM | CN1C(=O)[C@@H](NC(=O)C(=O)NCCc2ccsc2)COc2ccccc21 [Example 98, (S)—N-(5-methyl-4-oxo-2,3,4,5-tetrahydrobenzo[b][1,4]oxazepin-3-yl)-N^2-(2-(thiophen-3-yl)ethyl)oxalamide] | A (A: ≥90%)
